Our source for the carcinogen call values is PubChem BioAssay AID1259411 (Chemical Carcinogenesis Research Information System (CCRIS), 2018).

Molecules are shown by their SMILES. The source made the active and inactive calls. How the calls were made is not given here.

This data set has as its system rodent carcinogenicity bioassays, tumor incidence. Kind of data set: CCRIS carcinogenicity studies. The settings on record: Dose: 0, Dose: 0. In outline: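 Archive of carcinogenicity, mutagenicity, tumor promotion and tumor inhibition results drawn from journals, NCI reports and other sources, expert-reviewed; covers 1985-2011 and is no longer updated.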

`OC[C@@H](O)[C@@H](O)[C@H](O)[C@H](O)CO`: the carcinogen call reads like this: (Species: MOUSE, Strain/Sex: B6C3F1/FEMALE, Route: ORAL, 2.5, 5% IN THE DIET FOR 103 WK (STUDY DURATION: 103 WK), 2.5, 5% IN THE DIET FOR 103 WK (STUDY DURATION: 103 WK)) “inactive; negative”; (Species: MOUSE, Strain/Sex: B6C3F1/FEMALE, Route: ORAL, 25000, 50000 PPM IN DIET, 25000, 50000 PPM IN DIET) “inactive; negative”; (Species: MOUSE, Strain/Sex: B6C3F1/MALE, Route: ORAL, 2.5, 5% IN THE DIET FOR 103 WK (STUDY DURATION: 103 WK), 2.5, 5% IN THE DIET FOR 103 WK (STUDY DURATION: 103 WK)) “inactive; negative”; (Species: MOUSE, Strain/Sex: B6C3F1/MALE, Route: ORAL, 25000, 50000 PPM IN DIET, 25000, 50000 PPM IN DIET) “inactive; negative”; (Species: RAT, Strain/Sex: F344/FEMALE, Route: ORAL, 2.5, 5% IN THE DIET FOR 103 WK (STUDY DURATION: 103 WK), 2.5, 5% IN THE DIET FOR 103 WK (STUDY DURATION: 103 WK)) “inactive; negative”; (Species: RAT, Strain/Sex: F344/FEMALE, Route: ORAL, 25000, 50000 PPM IN DIET, 25000, 50000 PPM IN DIET) “inactive; negative”. In addition, the carcinogen call is “inactive; negative” (Species: RAT, Strain/Sex: F344/MALE, Route: ORAL, 2.5, 5% IN THE DIET FOR 103 WK (STUDY DURATION: 103 WK), 2.5, 5% IN THE DIET FOR 103 WK (STUDY DURATION: 103 WK)) and “inactive; negative” (Species: RAT, Strain/Sex: F344/MALE, Route: ORAL, 25000, 50000 PPM IN DIET, 25000, 50000 PPM IN DIET).
For `CCCCC(=O)O[C@H]1CC[C@H]2[C@@H]3CCc4cc(O)ccc4[C@H]3CC[C@]12C`, the carcinogen call (Species: RAT, Strain/Sex: STRAIN-CD/MALE, Route: SUBCUTANEOUS, 1 MG IN CASTOR OIL 1/4 WK FOR LIFE (STUDY DURATION: LIFE), Tumor Site: Type of Lesion: MAMMARY GLAND: TUMOR) was “active; positive”.
Consider `N#Cc1cc(Br)c(O)c(Br)c1`, for which the carcinogen call is “active; positive at high dose only; purity 94.4%” (Species: Mouse, Strain/Sex: Crl:CD-1 (ICR)BR VAF/Plus/Female (60/sex/group), Route: Oral, 20, 75, 300 ppm in feed for 78-80 wk, 20, 75, 300 ppm in feed for 78-80 wk, Tumor Site: Type of Lesion: Liver: Hepatocellular adenoma and carcinoma combined (0 ppm, 2/60; 300 ppm, 7/59)); “active; positive; purity 94.4%” (Species: Mouse, Strain/Sex: Crl:CD-1 (ICR)BR VAF/Plus/Male (60/sex/group), Route: Oral, 20, 75, 300 ppm in feed for 78-80 wk, 20, 75, 300 ppm in feed for 78-80 wk, Tumor Site: Type of Lesion: Liver: Hepatocellular adenoma and carcinoma combined (5/60; 16/60; 12/60; 23/60)).
Consider `N[C@@H](CCC(=O)N[C@@H](CSc1cc(O)c(SC[C@H](NC(=O)CC[C@H](N)C(=O)O)C(=O)NCC(=O)O)c(SC[C@H](NC(=O)CC[C@H](N)C(=O)O)C(=O)NCC(=O)O)c1O)C(=O)NCC(=O)O)C(=O)O`, for which the carcinogen call (Species: RAT, Strain/Sex: EKER(TSC2 MUTANT)/MALE, Route: INTRAPERITIONEAL, 2.5 UMOL/KG BW 5 BW 5 D/WK FOR 4 MO FOLLOWED BY 3.5 UMOL/KG BW 5 D/WK FOR 6 MO (STUDY DURATION: 10 MO), Tumor Site: Type of Lesion: KIDNEY: ADENOMA OR CARCINOMA) is “active; positive”.
Consider `CCN(CC)CCCC(C)Nc1c2ccc(Cl)cc2nc2ccc(OC)cc12` (stereo not drawn), for which the carcinogen call was “inactive; negative” (Species: Mouse, Strain/Sex: CD-1/Female (23/24)/(24/24)(23/24)(22/23), Route: Intraperitoneal, 10, 50, 150 mg/kg on days 8 and 15 after birth (Study duration: 52 weeks) (Test material solvent: 1% w/v carboxymethy, 10, 50, 150 mg/kg on days 8 and 15 after birth (Study duration: 52 weeks) (Test material solvent: 1% w/v carboxymethy); “inactive; negative” (Species: Mouse, Strain/Sex: CD-1/Male (32/32)/(23/24)(23/24)(25/25), Route: Intraperitoneal, 10, 50, 150 mg/kg on days 8 and 15 after birth (Study duration: 52 weeks) (Test material solvent: 1% w/v carboxymethy, 10, 50, 150 mg/kg on days 8 and 15 after birth (Study duration: 52 weeks) (Test material solvent: 1% w/v carboxymethy).
For the compound `CCCC(CCC)C(=O)O`, the carcinogen call by setting is: (Species: RAT, Strain/Sex: WISTAR/FEMALE, Route: ORAL, 125, 250, 500 MG/KG BW IN DIET FOR 104 WK (STUDY DURATION: 104 WK), 125, 250, 500 MG/KG BW IN DIET FOR 104 WK (STUDY DURATION: 104 WK), Tumor Site: Type of Lesion: UTERUS: ADENOCARCINOMA) “active; positive”; (Species: RAT, Strain/Sex: WISTAR/MALE, Route: ORAL, 125, 250, 500 MG/KG BW IN DIET FOR 104 WK (STUDY DURATION: 104 WK), 125, 250, 500 MG/KG BW IN DIET FOR 104 WK (STUDY DURATION: 104 WK)) “inactive; negative”.
Regarding `C[C@H]([C@H](O)CCC(C)(C)O)[C@H]1CC[C@@]2(O)C3=CC(=O)[C@@H]4C[C@@H](O)[C@@H](O)C[C@]4(C)[C@H]3CC[C@]12C`, the carcinogen call is “active; positive” (Species: MOUSE, Strain/Sex: SWISS/FEMALE, Route: ORAL, 3 PPM/25 G BW IN DIET FOR 22 MO (STUDY DURATION: 22 MO), Tumor Site: Type of Lesion: MAMMARY GLAND: TUMOR, LUNG: TUMOR) and “active; positive” (Species: MOUSE, Strain/Sex: SWISS/MALE, Route: ORAL, 3 PPM/25 G BW IN DIET FOR 22 MO (STUDY DURATION: 22 MO), Tumor Site: Type of Lesion: LUNG: TUMOR).
In the case of `CCC(C)OC(OC(C)CC)C(=O)c1ccccc1` (stereo not drawn), the carcinogen call (Species: MOUSE, Strain/Sex: C3H/HEJ/MALE, Route: DERMAL, 22.4 MG UNDILUTED 3/WK FOR LIFESPAN (STUDY DURATION: LIFESPAN)) was “inactive; negative”.
Consider `[O-]/[N+](=N\O)c1ccccc1`, for which the carcinogen call was “active; positive” (Species: MOUSE, Strain/Sex: B6C3F1/FEMALE, Route: ORAL, 0.2, 0.4% TWA, IN DIET FOR 78 WK (STUDY DURATION: 95-98 WK), 0.2, 0.4% TWA, IN DIET FOR 78 WK (STUDY DURATION: 95-98 WK), Tumor Site: Type of Lesion: CIRCULATORY SYSTEM: HEMANGIOSARCOMA OR HEMANGIOMA, LIVER: HEPATOCELLULAR CARCINOMA, HEPATOCELLULAR ADENOMA OR CARCINOMA;, Tumor Site: Type of Lesion: CIRCULATORY SYSTEM: HEMANGIOSARCOMA OR HEMANGIOMA, LIVER: HEPATOCELLULAR CARCINOMA, HEPATOCELLULAR ADENOMA OR CARCINOMA); “active; positive” (Species: MOUSE, Strain/Sex: B6C3F1/MALE, Route: ORAL, 0.2, 0.4% TWA, IN DIET FOR 78 WK (STUDY DURATION: 95-98 WK), 0.2, 0.4% TWA, IN DIET FOR 78 WK (STUDY DURATION: 95-98 WK), Tumor Site: Type of Lesion: CIRCULATORY SYSTEM: HEMANGIOSARCOMA); “active; positive” (Species: RAT, Strain/Sex: F344/FEMALE, Route: ORAL, 0.15, 0.30% IN DIET FOR 78 WK (STUDY DURATION: 106-110 WK), 0.15, 0.30% IN DIET FOR 78 WK (STUDY DURATION: 106-110 WK), Tumor Site: Type of Lesion: CIRCULATORY SYSTEM: HEMANGIOSARCOMA, LIVER: HEPATOCELLULAR CARCINOMA, HEPATOCELLULAR CARCINOMA OR NEOPLASTIC NODULE, STO, Tumor Site: Type of Lesion: CIRCULATORY SYSTEM: HEMANGIOSARCOMA, LIVER: HEPATOCELLULAR CARCINOMA, HEPATOCELLULAR CARCINOMA OR NEOPLASTIC NODULE, STO); “active; positive” (Species: RAT, Strain/Sex: F344/MALE, Route: ORAL, 0.15, 0.30% IN DIET FOR 78 WK (STUDY DURATION: 97-110 WK), 0.15, 0.30% IN DIET FOR 78 WK (STUDY DURATION: 97-110 WK), Tumor Site: Type of Lesion: CIRCULATORY SYSTEM: HEMANGIOSARCOMA, LIVER: HEPATOCELLULAR CARCINOMA OR NEOPLASTIC NODULE, STOMACH: SQUAMOUS CELL CARCIN, Tumor Site: Type of Lesion: CIRCULATORY SYSTEM: HEMANGIOSARCOMA, LIVER: HEPATOCELLULAR CARCINOMA OR NEOPLASTIC NODULE, STOMACH: SQUAMOUS CELL CARCIN).
